# Test results taken from patent EP4291552B1, “MODULATORS OF COMPLEX I” (Boehringer Ingelheim International GmbH, priority 2021, dated 2022).
# Tested on: mice neuroblastoma cells (HT-22)
# Experiment: Determination of Cellular Protection (HT22)
# Conditions: Mus musculus, HT-22, 16 h, read-out: HT22 IC50
row,SMILES,IC50 [nM]
1,CC(C)Nc1ccc2c(c1)/C(=C1\CCOCCN1)C(=O)N2C1CCOCC1 [Compound 30],135
2,CN1[C@@H]2CC[C@H]1CC(Nc1ccc3c(c1)/C(=C1\COCCN1)C(=O)N3C1CCOCC1)C2 (stereo partly drawn) [Compound 101],369
3,O=C1/C(=C2/CCOCCN2)c2cc(NC3CCOC3)ccc2N1C1CCOCC1 (stereo not drawn) [Compound 140],524
4,COCC(C)Nc1ccc2c(c1)/C(=C1\COCCN1)C(=O)N2C1CCOC1 (stereo not drawn) [Compound 52],198
5,CN(C)c1ccc2c(c1)/C(=C1\CCCCCN1)C(=O)N2C [Compound 105],91
6,CC(C)N1C(=O)/C(=C2/CCOCCN2)c2cc(N3C(C)CCC3C)ccc21 (stereo not drawn) [Compound 128],47
7,O=C1/C(=C2/COCCN2)c2cc(NC3CCCC3)ccc2N1C1COC1 [Compound 65],18
8,Nc1ccc2c(c1)/C(=C1\CCCN1)C(=O)N2C1CCOCC1 [Compound 83],2080
9,CN1C(=O)/C(=C2/CCNCCN2)c2cc(N3CCCC3)ccc21 [Compound 40],13
10,O=C1/C(=C2/COCCN2)c2cc(N3CCCC3)ccc2N1C1CCOCC1 [Compound 117],22
11,CC(C)N1CCN/C(=C2\C(=O)N(C)c3ccc(N4CCCC4)cc32)CC1 [Compound 110],19
12,CC(C)Nc1ccc2c(c1)/C(=C1\CCN(C(C)C)CCN1)C(=O)N2C1CCOCC1 [Compound 164],30
13,COCC(C)Nc1ccc2c(c1)/C(=C1\COCCN1)C(=O)N2C1COC1 (stereo not drawn) [Compound 137],886
14,CCOC(=O)N1CCC(N2C(=O)/C(=C3/COCCN3)c3cc(N4CCCC4)ccc32)CC1 [Compound 118],33
15,CC(C)N1C(=O)/C(=C2/COCCN2)c2cc(NC3COC3)ccc21 [Compound 98],166
16,CC(C)N1CCC(N2C(=O)/C(=C3/COCCN3)c3cc(N(C(C)C)C(C)C)ccc32)CC1 [Compound 122],944
17,CC(Nc1ccc2c(c1)/C(=C1\COCCN1)C(=O)N2C(C)C)C1CC1 (stereo not drawn) [Compound 97],17
18,CC(C)Nc1ccc2c(c1)/C(=C1\CCCCN1)C(=O)N2C(C)C [Compound 133],23
19,CC(C)Nc1ccc2c(c1)C(=C1CCOCC1)C(=O)N2C(C)C [Compound 47],85
20,CC(C)N1C(=O)/C(=C2/COCCN2)c2cc(N3CCCC3)ccc21 [Compound 130],45
21,CC(C)N1C(=O)/C(=C2/COCCN2)c2cc(NC3CCC(F)(F)CC3)ccc21 [Compound 72],6

row,SMILES,IC50 [nM]
1,CC(C)N1C(=O)C(=C2CCOCC2)c2cc(NC3CCOC3)ccc21 (stereo not drawn) [Compound 160],471
2,CCC(C)Nc1ccc2c(c1)/C(=C1\COCCN1)C(=O)N2C(C)C (stereo not drawn) [Compound 54],24
3,CC(C)Nc1ccc2c(c1)/C(=C1\COCCN1)C(=O)N2C1CCOCC1 [Compound 3],71
4,COCC(C)N1C(=O)/C(=C2/COCCN2)c2cc(N3CCCC3)ccc21 (stereo not drawn) [Compound 68],134
5,CC(C)Nc1ccc2c(c1)/C(=C1\CCCN1C)C(=O)N2C1CCOCC1 [Compound 48],353
6,CN(C)c1ccc2c(c1)/C(=C1\CCOCCN1)C(=O)N2C [Compound 41],983
7,CC(C)Nc1ccc2c(c1)/C(=C1\CN(C3COC3)CCN1)C(=O)N2C1CCOCC1 [Compound 5],220
8,CC(C)N1C(=O)/C(=C2/COCCN2)c2cc(NCC3CC3)ccc21 [Compound 58],19
9,CC1CCC(C)N1c1ccc2c(c1)/C(=C1\COCCN1)C(=O)N2C1CCOCC1 (stereo not drawn) [Compound 156],71
10,O=C(CCO)Nc1ccc2c(c1)/C(=C1\COCCN1)C(=O)N2C1CCOC1 (stereo not drawn) [Compound 169],336
11,CC(C)N1CCC(Nc2ccc3c(c2)/C(=C2\COCCN2)C(=O)N3C2CCOCC2)CC1 [Compound 19],168
12,CC1CCC(C)N1c1ccc2c(c1)/C(=C1\CCOCCN1)C(=O)N2C1CCOCC1 (stereo not drawn) [Compound 29],142
13,O=C1/C(=C2/COCCN2)c2cc(NC3CCOC3)ccc2N1C1CCOC1 (stereo not drawn) [Compound 168],439
14,CN1CCC(Nc2ccc3c(c2)/C(=C2\COCCN2)C(=O)N3C2CCOCC2)CC1 [Compound 150],286
15,CC1CCN(c2ccc3c(c2)/C(=C2\COCCN2)C(=O)N3C2CCOCC2)CC1 [Compound 85],264
16,CN1C(=O)/C(=C2/CCN(C(=O)OCc3ccccc3)CCN2)c2cc(N3CCCC3)ccc21 [Compound 152],47
17,CC(C)N1C(=O)C(=C2CCOCC2)c2cc(NC3CCCC3)ccc21 [Compound 116],9
18,CN(C)c1ccc2c(c1)/C(=C1\CCN(C(=O)OCc3ccccc3)CCN1)C(=O)N2C [Compound 108],128
19,CC(C)N1C(=O)/C(=C2/CCOCCN2)c2cc(N3CCCC3)ccc21 [Compound 129],23
20,CC(C)N1C(=O)/C(=C2/COCCN2)c2cc(NCC(C)(C)C)ccc21 [Compound 145],4
21,CCC(CC)Nc1ccc2c(c1)/C(=C1\COCCN1)C(=O)N2C(C)C [Compound 171],23

row,SMILES,IC50 [nM]
1,CC(=O)N1CCC(Nc2ccc3c(c2)/C(=C2\COCCN2)C(=O)N3C(C)C)CC1 [Compound 172],279
2,CC(C)Nc1ccc2c(c1)/C(=C1\CN(C3COC3)CCN1)C(=O)N2C(C)C [Compound 114],104
3,CC1OCCC1Nc1ccc2c(c1)/C(=C1\COCCN1)C(=O)N2C1CCOCC1 (stereo not drawn) [Compound 174],143
4,CC(C)N1C(=O)/C(=C2/COCCN2)c2cc(NC3CCOCC3)ccc21 [Compound 36],56
5,CN1C(=O)/C(=C2/CCOCCN2)c2cc(N3CCCC3)ccc21 [Compound 107],69
6,CN1CCC/C1=C1/C(=O)N(C2CCOCC2)c2ccc(NC3CCOC3)cc21 (stereo not drawn) [Compound 49],1250
7,CC1OCCC1Nc1ccc2c(c1)/C(=C1\COCCN1)C(=O)N2C(C)C (stereo not drawn) [Compound 125],112
8,CC(C)Nc1ccc2c(c1)/C(=C1\CN(C3CCOCC3)CCN1)C(=O)N2C(C)C [Compound 134],44
9,CC(C)C(C)Nc1ccc2c(c1)/C(=C1\COCCN1)C(=O)N2C(C)C (stereo not drawn) [Compound 95],6
10,O=C1/C(=C2/COCCN2)c2cc(N3CCOCC3)ccc2N1C1CCOCC1 [Compound 4],3140
11,COC1COCCC1Nc1ccc2c(c1)/C(=C1\COCCN1)C(=O)N2C1CCOCC1 (stereo not drawn) [Compound 149],2940
12,CC(C)C(C)Nc1ccc2c(c1)/C(=C1\COCCN1)C(=O)N2C1COC1 (stereo not drawn) [Compound 66],19
13,CC(Nc1ccc2c(c1)/C(=C1\COCCN1)C(=O)N2C1CCOCC1)C1CC1 (stereo not drawn) [Compound 20],34
14,O=C1/C(=C2/COCCN2)c2cc(NCC3CCOC3)ccc2N1C1CCOCC1 (stereo not drawn) [Compound 151],184
15,CC(C)C(C)Nc1ccc2c(c1)/C(=C1\COCCN1)C(=O)N2C1COCCOC1 (stereo not drawn) [Compound 27],15
16,CC(Nc1ccc2c(c1)/C(=C1\COCCN1)C(=O)N2C(C)C)C1CCC1 (stereo not drawn) [Compound 37],3
17,CC(C)Nc1ccc2c(c1)/C(=C1\COCCN1)C(=O)N2C1CCOC1 (stereo not drawn) [Compound 163],52
18,COCC(C)Nc1ccc2c(c1)/C(=C1\COCCN1)C(=O)N2C1CCOCC1 (stereo not drawn) [Compound 99],163
19,O=C1C(=C2CCOCC2)c2cc(N3CCCC3)ccc2N1C1CCOCC1 [Compound 112],86
20,CN(C)c1ccc2c(c1)/C(=C1\CCCN1)C(=O)N2C1CCOCC1 [Compound 42],951
21,CC(Nc1ccc2c(c1)/C(=C1\COCCN1)C(=O)N2C1CCOCC1)C1CCCC1 (stereo not drawn) [Compound 61],12

row,SMILES,IC50 [nM]
1,CCOC(=O)N1CCC(N2C(=O)/C(=C3/COCCN3)c3cc(N(C)C)ccc32)CC1 [Compound 89],493
2,CN(C)c1ccc2c(c1)/C(=C1\CCCN1)C(=O)N2C1CCN(C(=O)C(F)(F)F)CC1 [Compound 153],170
3,CC(C)Nc1ccc2c(c1)/C(=C1\CC3(CN1)COC3)C(=O)N2C1CCOCC1 [Compound 165],253
4,CC(=O)N1CCN/C(=C2\C(=O)N(C3CCOCC3)c3ccc(N4CCCC4)cc32)CC1 [Compound 12],191
5,CC(Nc1ccc2c(c1)/C(=C1\COCCN1)C(=O)N2C1COC1)C1CC1 (stereo not drawn) [Compound 67],37
6,CC(C)Nc1ccc2c(c1)/C(=C1\CCCN1C)C(=O)N2C(C)C [Compound 115],30
7,CN(C)c1ccc2c(c1)/C(=C1\CCCCN1)C(=O)N2C [Compound 62],162
8,CC(C)N1CCC2(CC1)CN/C(=C1\C(=O)N(C(C)C)c3ccc(N4C(C)CCC4C)cc31)CO2 (stereo not drawn) [Compound 139],18
9,CC(Nc1ccc2c(c1)/C(=C1\COCCN1)C(=O)N2C(C)C)c1ccncc1 (stereo not drawn) [Compound 143],110
10,O=C1/C(=C2/COCCN2)c2cc(NC3CCOCC3)ccc2N1C1CCOC1 (stereo not drawn) [Compound 32],205
11,O=C1/C(=C2/COCCN2)c2cc(N3CCCCC3)ccc2N1C1CCOCC1 [Compound 86],1110
12,CC(C)N1C(=O)/C(=C2/COCCN2)c2cc(NC3C[C@H]4CC[C@@H](C3)N4C)ccc21 (stereo partly drawn) [Compound 123],17
13,COC1COCCC1Nc1ccc2c(c1)/C(=C1\COCCN1)C(=O)N2C(C)C (stereo not drawn) [Compound 16],693
14,CN1C(=O)/C(=C2/COCCN2)c2cc(NC3CC4CCC(C3)N4C)ccc21 (stereo not drawn) [Compound 131],111
15,CC(C)N1C(=O)/C(=C2/COCCN2)c2cc(NCC3CCOCC3)ccc21 [Compound 75],73
16,CC(C)Nc1ccc2c(c1)/C(=C1\COCCN1)C(=O)N2C1COC1 [Compound 135],158
17,CC(Nc1ccc2c(c1)/C(=C1\COCCN1)C(=O)N2C1CCOCC1)c1ccnn1C (stereo not drawn) [Compound 79],221
18,CC(Nc1ccc2c(c1)/C(=C1\COCCN1)C(=O)N2C1CCOCC1)C1CCC1 (stereo not drawn) [Compound 148],16
19,CC1CCCC1Nc1ccc2c(c1)/C(=C1\COCCN1)C(=O)N2C1CCOCC1 (stereo not drawn) [Compound 102],3
20,CC(=O)N1CCC2(CC1)CN/C(=C1\C(=O)N(C(C)C)c3ccc(NC(C)C)cc31)CO2 [Compound 34],49

# Target: Complex I (Bos taurus, UniProt P25708)
# Experiment: Determination of Complex I mediated ROS-inhibition (CI)
# Type: biochemical, bovine
# Conditions: read-out: CI IC50
row,SMILES,IC50 [nM]
1,CN1[C@@H]2CC[C@H]1CC(Nc1ccc3c(c1)/C(=C1\COCCN1)C(=O)N3C1CCOCC1)C2 (stereo partly drawn) [Compound 101],202
2,CC(C)N1C(=O)/C(=C2/COCCN2)c2cc(NC3C[C@H]4CC[C@@H](C3)N4C)ccc21 (stereo partly drawn) [Compound 123],916
3,CN1C(=O)/C(=C2/COCCN2)c2cc(NC3CC4CCC(C3)N4C)ccc21 (stereo not drawn) [Compound 131],189

# Same assay, conditions: read-out: CI IC50; Complex I purified from bovine heart; ROS detected via Amplex Red/horse radish peroxidase; 8 point concentration-response
row,SMILES,IC50 [nM]
1,CC(C)Nc1ccc2c(c1)/C(=C1\CCOCCN1)C(=O)N2C1CCOCC1 [Compound 30],195
